Measurements: ChEMBL document CHEMBL1201862, “PubChem BioAssay data set” (2004)
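The compound was tested at five concentrations on cells cultured in 96-well plates, with a 48-hour exposure period. The concentration for 50% growth inhibition is given as GI50.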 Active and inactive are the calls of the source. No stated cut-off is given here; in the data, active = GI50 up to about 1.1 µM and inactive = higher.

Tests used:
Experiment in all cases: DTP human tumour cell line panel, 48 h
CCRF-CEM = test system: CCRF-CEM
PC-3 = test system: PC-3
SNB-75 = test system: SNB-75
HCT-15 = test system: HCT-15
U-251 = test system: U-251
M14 = test system: M14
HOP-62 = test system: HOP-62
UACC-62 = test system: UACC-62
IGROV-1 = test system: IGROV-1
SN12C = test system: SN12C
HOP-92 = test system: HOP-92
RXF 393 = test system: RXF 393
A498 = test system: A498
OVCAR-4 = test system: OVCAR-4
A549 = test system: A549
NCI-H23 = test system: NCI-H23
HCC 2998 = test system: HCC 2998
MDA-MB-435 = test system: MDA-MB-435
OVCAR-8 = test system: OVCAR-8
SF-295 = test system: SF-295

Structure (SMILES)	GI50 (CCRF-CEM)	GI50 (PC-3)	GI50 (SNB-75)	GI50 (HCT-15) [µM]	GI50 (U-251)	GI50 (M14)	GI50 (HOP-62)	GI50 (UACC-62)	GI50 (IGROV-1)	GI50 (SN12C)	GI50 (HOP-92)	GI50 (RXF 393)	GI50 (A498)	GI50 (OVCAR-4)	GI50 (A549)	GI50 (NCI-H23)	GI50 (HCC 2998)	GI50 (MDA-MB-435)	GI50 (OVCAR-8)	GI50 (SF-295)
CC[C@@H]1CN(C)[C@H]2Cc3c([nH]c4ccccc34)C(=O)C[C@H]1C2C(=O)OC (stereo not given in full)	96.6 µM (inactive)	> 100 µM (inactive)	> 91.4 µM (inactive)	> 100	> 100 µM (inactive)	> 100 µM (inactive)	> 72.8 µM (inactive)	> 100 µM (inactive)	> 100 µM (inactive)	> 100 µM (inactive)	> 100 µM (inactive)	> 77.8 µM (inactive)	> 100 µM (inactive)	> 31.6 µM (inactive)	> 100 µM (inactive)	> 100 µM (inactive)	> 100 µM (inactive)	> 100 µM (inactive)	> 100 µM (inactive)	> 54.2 µM (inactive)
CC1(C)CC(=O)C2(CC(CSc3ccccc3)C(CS(=O)(=O)c3ccccc3)C2)C(=O)C1 (stereo not given)	> 100 µM (inactive)	30.8 µM (inactive)	4.85 µM (inactive)	> 100	> 100 µM (inactive)	> 100 µM (inactive)	> 100 µM (inactive)	> 100 µM (inactive)	> 100 µM (inactive)	> 100 µM (inactive)	> 100 µM (inactive)	> 100 µM (inactive)	> 100 µM (inactive)	> 100 µM (inactive)	> 100 µM (inactive)	> 100 µM (inactive)	> 100 µM (inactive)	> 100 µM (inactive)	> 100 µM (inactive)	> 100 µM (inactive)
O=C1NC(=O)/C(=C/c2ccc(S(=O)(=O)N/N=C\C(O)C(O)C(O)C(O)CO)cc2)N1 (stereo not given)	> 100 µM (inactive)	> 100 µM (inactive)	> 100 µM (inactive)	> 100	> 100 µM (inactive)	> 100 µM (inactive)	> 100 µM (inactive)	> 100 µM (inactive)	> 100 µM (inactive)	> 100 µM (inactive)	> 100 µM (inactive)	> 100 µM (inactive)	> 100 µM (inactive)	> 100 µM (inactive)	> 100 µM (inactive)	> 100 µM (inactive)	> 100 µM (inactive)	> 100 µM (inactive)	> 100 µM (inactive)	> 100 µM (inactive)
O=C1c2n[nH]nc2C(=O)c2n[nH]nc21	> 100 µM (inactive)	> 100 µM (inactive)	> 100 µM (inactive)	> 100	> 100 µM (inactive)	> 100 µM (inactive)	> 100 µM (inactive)	> 100 µM (inactive)	> 66.4 µM (inactive)	> 100 µM (inactive)	> 100 µM (inactive)	> 100 µM (inactive)	> 100 µM (inactive)	> 100 µM (inactive)	> 100 µM (inactive)	> 100 µM (inactive)	> 100 µM (inactive)	> 100 µM (inactive)	> 100 µM (inactive)	> 100 µM (inactive)
CCOC(=O)/C=C(\C(=O)OCC)n1cc(C)c(=O)n(Cc2cnnn2CCCCOC(C)=O)c1=O	0.661 µM (active)	16.4 µM (inactive)	18 µM (inactive)	2.84	17.3 µM (inactive)	20.9 µM (inactive)	27 µM (inactive)	15 µM (inactive)	12.7 µM (inactive)	12.1 µM (inactive)	2.1 µM (inactive)	2.7 µM (inactive)	22.2 µM (inactive)	19.2 µM (inactive)	24.5 µM (inactive)	17.1 µM (inactive)	21 µM (inactive)	7.69 µM (inactive)	3.37 µM (inactive)	32.1 µM (inactive)
CC(C)C1=CC(=O)[C@@](C)(C2[C@H](O)C[C@@]3(C)[C@@H]4CC=C5[C@@H](CC[C@@H](OC6OCC(O)C(O)C6OC6OC(C)C(O)C(O)C6O)C5(C)C)[C@]4(C)C(=O)C[C@]23C)O1 (stereo not given in full)	> 100 µM (inactive)	> 100 µM (inactive)	> 100 µM (inactive)	> 100	> 100 µM (inactive)	> 100 µM (inactive)	> 100 µM (inactive)	> 100 µM (inactive)	> 100 µM (inactive)	> 100 µM (inactive)	> 100 µM (inactive)	> 100 µM (inactive)	> 100 µM (inactive)	> 100 µM (inactive)	> 100 µM (inactive)	> 100 µM (inactive)	> 100 µM (inactive)	> 100 µM (inactive)	> 100 µM (inactive)	59 µM (inactive)
COC(=O)[C@@H]1c2cc3c(c(O)c2[C@@H](OC2OC(C)C(OC)C(C)(OC)C2OC)C[C@]1(C)O)C(=O)c1c(O)cc2c(c1C3=O)O[C@H]1O[C@]2(C)[C@H](O)[C@@H](N(C)C)[C@@H]1O (stereo not given in full)	0.0114 µM (active)	0.0468 µM (active)	0.00608 µM (active)	0.247	0.00766 µM (active)	0.0317 µM (active)	0.0359 µM (active)	0.00386 µM (active)	0.0101 µM (active)	< 0.0232 µM (active)	0.00532 µM (active)	0.0132 µM (active)	0.000507 µM (active)	0.0191 µM (active)	0.0156 µM (active)	0.00581 µM (active)	0.00433 µM (active)	0.0612 µM (active)	0.00508 µM (active)	0.0154 µM (active)
CN(CCCNC(=O)c1n[nH]c2c1ccc1ccccc12)CCCNC(=O)c1n[nH]c2c1ccc1ccccc12	11.1 µM (inactive)	14.7 µM (inactive)	16.3 µM (inactive)	17	14.8 µM (inactive)	4.3 µM (inactive)	16.8 µM (inactive)	9.91 µM (inactive)	16.5 µM (inactive)	16.3 µM (inactive)	14.6 µM (inactive)	14.4 µM (inactive)	17.8 µM (inactive)	17.3 µM (inactive)	19.3 µM (inactive)	17.9 µM (inactive)	1.9 µM (inactive)	2.62 µM (inactive)	16.4 µM (inactive)	17.3 µM (inactive)
Nc1c(C(=O)c2ccc(Cl)cc2)[nH]c(Nc2ccc(Cl)cc2)c1C(=S)Nc1ccccc1	6.27 µM (inactive)	10.6 µM (inactive)	3 µM (inactive)	4.01	2.97 µM (inactive)	11.9 µM (inactive)	5.65 µM (inactive)	13.4 µM (inactive)	4.15 µM (inactive)	7.71 µM (inactive)	5.21 µM (inactive)	2.7 µM (inactive)	12.7 µM (inactive)	2.08 µM (inactive)	3.21 µM (inactive)	3.3 µM (inactive)	2.74 µM (inactive)	7.14 µM (inactive)	3.12 µM (inactive)	2.38 µM (inactive)
O=C(O)C1CC2C3CCC2C1C3=O (stereo not given)	> 100 µM (inactive)	> 100 µM (inactive)	> 100 µM (inactive)	> 100	> 100 µM (inactive)	> 100 µM (inactive)	> 100 µM (inactive)	> 100 µM (inactive)	> 100 µM (inactive)	> 100 µM (inactive)	> 100 µM (inactive)	> 100 µM (inactive)	> 100 µM (inactive)	> 100 µM (inactive)	> 100 µM (inactive)	> 100 µM (inactive)	> 100 µM (inactive)	> 100 µM (inactive)	> 100 µM (inactive)	> 100 µM (inactive)
O=C1O/C(=C(/Cl)c2cccc3ccccc23)c2ccccc21	> 10 µM (inactive)	> 100 µM (inactive)	22.2 µM (inactive)	> 100	96.8 µM (inactive)	> 100 µM (inactive)	46.3 µM (inactive)	> 100 µM (inactive)	> 100 µM (inactive)	> 100 µM (inactive)	> 100 µM (inactive)	> 100 µM (inactive)	> 100 µM (inactive)	> 100 µM (inactive)	> 100 µM (inactive)	> 100 µM (inactive)	> 100 µM (inactive)	> 100 µM (inactive)	> 100 µM (inactive)	47 µM (inactive)
CCOC(=O)/C(=C\c1ccc(F)cc1)C(C)=O	26.3 µM (inactive)	17.1 µM (inactive)	25.1 µM (inactive)	20.7	19.1 µM (inactive)	22.9 µM (inactive)	38.9 µM (inactive)	18.9 µM (inactive)	18.2 µM (inactive)	63 µM (inactive)	15.1 µM (inactive)	17 µM (inactive)	17.8 µM (inactive)	28 µM (inactive)	45.3 µM (inactive)	21.2 µM (inactive)	13.5 µM (inactive)	30.1 µM (inactive)	29.2 µM (inactive)	29.5 µM (inactive)
CCCCCCCCCCCCCCCC(=O)N(CCCCCCCCCCC(=O)O)CC(O)C(O)C(OC1OC(CO)C(O)C(O)C1O)C(O)CO (stereo not given)	26.5 µM (inactive)	37.8 µM (inactive)	38.9 µM (inactive)	41.2	18 µM (inactive)	20.7 µM (inactive)	23.5 µM (inactive)	18.9 µM (inactive)	60.8 µM (inactive)	20.5 µM (inactive)	41.3 µM (inactive)	48.1 µM (inactive)	> 100 µM (inactive)	60.3 µM (inactive)	> 100 µM (inactive)	40.9 µM (inactive)	21.1 µM (inactive)	49.4 µM (inactive)	27.1 µM (inactive)	15.6 µM (inactive)
CC(=O)[O-].[Zn+].c1ccc(/C(=N\Nc2ccccn2)c2ccccn2)cc1	0.00277 µM (active)	0.03 µM (active)	0.914 µM (active)	0.0137	0.281 µM (active)	0.0813 µM (active)	0.269 µM (active)	0.182 µM (active)	0.0374 µM (active)	0.0424 µM (active)	0.381 µM (active)	0.3 µM (active)	1.74 µM (inactive)	0.603 µM (active)	0.344 µM (active)	0.0155 µM (active)	0.71 µM (active)	0.408 µM (active)	0.0519 µM (active)	0.348 µM (active)
